Values quoted from earlier work as cited in US7964202B2, “Method for treatment of common acne” (Galderma Research & Development, S.N.C., priority 2001, dated 2011).
Where two headings read alike, the source gives them in different places.

Assays:
[1] = for degradation time: 40° C.
[2] = in presence of benzoyl peroxide formulation

Row | retinoid degraded ([2]; 24 hours) | retinoid degraded ([2]; 2 hours) [%] | Compound | Benzoyl peroxide solubility (solvent PEG 400) [mg/g] | Benzoyl peroxide solubility (solvent ethanol) [mg/g] | Benzoyl peroxide solubility (solvent glycerol) [mg/g] | Benzoyl peroxide solubility (solvent propylene glycol) [mg/g] | Benzoyl peroxide solubility (solvent propylene glycol/water (75:25)) [mg/g] | Benzoyl peroxide solubility (solvent water) [mg/g] | degradation time ([1]; in solution in PEG 400 (0.5 mg/g)) [days] | degradation time ([1]; in solution in ethanol) [days] | degradation time ([1]; in solution in propylene glycol) [days] | degradation in suspension (dispersed form) ([1]; in water and propylene glycol, storage for 90 days)
1 |  |  | O=C(OOC(=O)c1ccccc1)c1ccccc1 [Benzoyl peroxide] | 39.6 | 17.9 | 0.15 | 2.95 | 0.36 | 0.000155 | 1.4 | 29 | 53 | not degraded
2 | no degradation |  | COc1ccc(-c2ccc3cc(C(=O)O)ccc3c2)cc1C12CC3CC(CC(C3)C1)C2 [adapalene] |  |  |  |  |  |  |  |  |  | 
3 | 95% | 50 | CC1=C(/C=C/C(C)=C/C=C/C(C)=C/C(=O)O)C(C)(C)CCC1 [tretinoin] |  |  |  |  |  |  |  |  |  | 
